Article PMC6411751, “Use of machine learning to identify novel, behaviorally active antagonists of the insect odorant receptor co-receptor (Orco) subunit” (Scientific Reports, 2019)
Where a name gives a salt, the structure may show the parent alone.

Key:
[1] = system: ab2 sensilla (EA responsive OSN); test: Single sensillum recording (SSR), ab2 sensilla, ethyl acetate response; format: in vivo, Drosophila melanogaster
From the text: (§1) Adult flies (w1118 strain, 3–5 days old) were mounted in truncated pipette tips for detection of antennal responses[69],[70]. EAG data were obtained with an IDAC-232 (Syntech), which was linked to a computer via the EAGpro data acquisition interface. SSR data were acquired with an IDAC 4 and AutoSpike (Syntech). Recording and indifferent electrodes were made of silver/silver chloride wires enclosed in glass capillary needles, which were pulled with a Micropipette Puller (P-97, Sutter Instruments Co.) and filled with 1 M potassium chloride in 1% polyvinylpyrrolidone. The indifferent electrode was inserted in the eye of an immobilized fly, while the EAG recording electrode was placed on the third segment of the antenna under a S2X12 Olympus microscope and by using a micromanipulator MP-12 (Syntech). […] The total flow (continuous plus compensatory or continuous plus stimulus) of 0.6 mL/s was measured at the center of the outlet of the stimulus delivery tube with an Anemometer Lite (Model 6006, Kanomax, Osaka, Japan). […] Spikes were manually counted 0.5 s before and 0.5 s after stimulus and the results presented as poststimulus number of spikes per 0.5 s (number of spikes after stimulus minus number of spikes prior to stimulus). Data were analyzed with One Way ANOVA using Prism 7 (GraphPad).

D. melanogaster larvae = test: Larval chemotaxis assay (attraction to ethyl acetate); format: in vivo, Drosophila melanogaster; settings: for larval preference, compound alone vs. mineral oil vehicle: 10 µL of 100 mM on plate filter
Method: We have previously provided a detailed description of these methods. Briefly, Canton-S (CS) flies were used as wild type (wt). The experimental chamber was a 100 × 15 mm polystyrene Petri dish (VWR) with 20 mL of 1.1% agarose coating the bottom. In this assay, 50 third-instar larvae were placed inside a “starting circle” at the center of the plate (the circle was drawn on the outside bottom of the plate). A line was also drawn that divided the plate in half. Small filter paper discs (d = 6 mm, Whatman Cellulose Filter Paper, # 1030 023) were placed on opposite sides of the plate (see Fig. 8A). Onto each filter paper disc was placed 10 μL of solution, containing either vehicle of dilution (mineral oil), odorant attractant (EA, diluted in mineral oil) or an Orco antagonist compound (diluted in mineral oil). The sides of the plate on which the compounds or vehicle were placed were alternated from experiment to experiment.
In order to test Orco antagonists for the ability to affect the chemotaxis assay, a large (d = 9 cm) filter paper (Whatman Filter Paper # D00161-S) was adhered with double-sided tape to the inside of the Petri dish lid. This allowed the larvae to be exposed to Orco antagonists in an airborne context. For light repulsion experiments, we used a Zeiss CL6000 LED light source at 76% intensity. Following the 5 min migratory period, plates were photographed, coded and then blind counted. Any larvae still within the starting circle or touching the center line were excluded from the analysis. A Response Index (RI) was calculated as RI = (S − C)/(S + C), where S is the number of larvae on the stimulus (EA) side and C is the number of larvae on the control (mineral oil) side. RI = 1 would indicate complete attraction, RI = −1 would indicate complete repulsion, and RI = 0 would indicate no preference. Statistical significance was assessed using a one-way analysis of the variance followed by Dunnett’s’s post-test.

[2] = system: ab1 sensilla (CO2 responsive OSN, Gr21 and Gr63a); test: Single sensillum recording (SSR), ab1 sensilla, CO2 response; format: in vivo, Drosophila melanogaster; settings: 10 µL of 1% compound in mineral oil
From the text: as §1

fruit fly antennae = test: Electroantennogram (EAG) recordings in adult flies; format: in vivo, Drosophila melanogaster; settings: for amplitude of EAG responses to EA and 2 H: adult flies
From the text: Adult flies (w1118 strain, 3–5 days old) were mounted in truncated pipette tips for detection of antennal responses[69],[70]. EAG data were obtained with an IDAC-232 (Syntech), which was linked to a computer via the EAGpro data acquisition interface. SSR data were acquired with an IDAC 4 and AutoSpike (Syntech). Recording and indifferent electrodes were made of silver/silver chloride wires enclosed in glass capillary needles, which were pulled with a Micropipette Puller (P-97, Sutter Instruments Co.) and filled with 1 M potassium chloride in 1% polyvinylpyrrolidone. The indifferent electrode was inserted in the eye of an immobilized fly, while the EAG recording electrode was placed on the third segment of the antenna under a S2X12 Olympus microscope and by using a micromanipulator MP-12 (Syntech). For SSR, the recording electrode was inserted into a desired sensillum under a stage microscope (BX51WI, Olympus) and using a Piezo Manipulator (PM10, World Precision Instrument). The stimulus delivery system consisted of a Stimulus Controller CS-55 (Syntech), which delivered charcoal-filtered, humidified air at 650 mL/min through a stimulus tube (5 cm long; internal diameter, 8 mm). The outlet of the stimulus delivery tube was set 1 cm away from the preparations. Stimulus pulses (0.5 sec) were introduced through a hole in the stimulus delivery tube 2.5 cm away from outlet. A compensatory flow was applied through another hole in the tube (directly across from the stimulus pulse hole). The total flow (continuous plus compensatory or continuous plus stimulus) of 0.6 mL/s was measured at the center of the outlet of the stimulus delivery tube with an Anemometer Lite (Model 6006, Kanomax, Osaka, Japan). 10 µL of the odorants EA and 2 H (freshly diluted to 0.01%, 0.1% or 1% in mineral oil) or the Orco antagonist compounds BMP and LF (freshly diluted to 1% or 50% in mineral oil) were loaded onto filter papers (1 cm^2). The filter papers containing odorants were placed inside of stimulus cartridges. Loading of odorant containing filter papers into the cartridges occurred in ambient air, which could contain trace amounts of odorants. Thus, stimulus pulses with ambient air (filter papers containing mineral oil alone) in the cartridges were used to define a baseline response. For EAG, filter papers containing BMP or LF (50% in mineral oil) were placed inside the main airflow tube 8 cm away from the antenna and odorants were delivered through a hole 2.5 cm away from the outlet. For SSR, BMP (1% in mineral oil) was delivered into the holes 2.5 cm away from the outlet, whereas the odorants were delivered upstream through a hole 4 cm away from the outlet. The different delivery arrangements may contribute to the difference in apparent BMP potency in the EAG and SSR experiments (Figs 6 and 7). Each filter paper was used 3–5 times before being replaced. CO2 was freshly collected into stimulus cartridge from the breath of the same subject (P.X.) and used only once. Spikes were manually counted 0.5 s before and 0.5 s after stimulus and the results presented as poststimulus number of spikes per 0.5 s (number of spikes after stimulus minus number of spikes prior to stimulus). Data were analyzed with One Way ANOVA using Prism 7 (GraphPad).

[3] = system: sham (water) injected oocytes; test: Application of Orco antagonists to sham (water) injected oocytes; format: cell-based, Xenopus laevis; settings: 3 mM
Method: To measure antagonist activity at Orco, Agam\Orco was activated by the Orco agonist OLC12[34]. Following two successive 60 sec applications of 30 μM OLC12, with 5 min washes between applications, each antagonist candidate was applied for 90 sec, immediately followed by a 60 sec co-application of antagonist candidate and OLC12. The 90 sec application of each compound alone (prior to co-application of the compound and OLC12) allowed us to ensure that antagonist candidate compounds were not causing non-specific effects on the oocytes that might confound the results. The current response to OLC12 in the presence of antagonist candidate was compared to the mean of the preceding two responses to OLC12 alone and presented as a percentage[34],[35]. This value was then normalized to the value obtained when the assay was run in the absence of antagonist candidate (sham).
Figure S2. Applic a tion of Orco antagonists to s ha m (wa ter) injected oocytes.
Up p e r tra ce, current recording from a sham (water) injected oocyte that was challenged with 60 sec applications of 100 µM an d 1 mM 3-isopropyl-6-methyl-ca t e ch o l (3 I6MC). Representative of recordings from 4 oocytes. Lo we r trace, current recording from a sham (water) injected oocyte that was challenged with 60 sec applications of 3 mM 2-tert-butyl-6-methylphenol (BMP) and linalyl formate (LF). Representative of recordings […]

[4] = 10 µL of 50% compound in mineral oil in main airflow

Row | SMILES | SSR response of ab2 sensilla to EA ([1]; 10 µL of 1% compound in mineral oil, 0.1% EA) | reversibility of effect on ab2 EA response ([1]; subsequent response to EA alone) | larval attraction to EA with airborne compound (D. melanogaster larvae; 30 mM on lid filter) | larval preference, compound alone vs. mineral oil vehicle (D. melanogaster larvae) | larval attraction to EA with airborne compound (D. melanogaster larvae; 685 µL of 100 mM on lid filter) | SSR response of ab1 sensilla to CO2 [2] | baseline EAG response to ambient air (fruit fly antennae; [4]) | amplitude of EAG responses to EA and 2 H (fruit fly antennae; [4]) | extent of inhibition of EAG responses across 0.01%, 0.1%, 1% 2H (fruit fly antennae; 50% BMP in main airflow, n = 3) | extent of inhibition of EAG responses across 0.01%, 0.1%, 1% EA (fruit fly antennae; 50% BMP in main airflow, n = 3) | odorant agonist activity in EAG (fruit fly antennae; compound alone) | non-specific effects on sham (water) injected oocytes [3]
1 | Cc1cccc(C(C)(C)C)c1O [BMP, 2-tert-butyl-6-methylphenol] | abolished the response | reversible | did not significantly affect attraction to EA | displayed no preference | completely abolished larval attraction to EA | had no effect on the CO2 response | significantly reduced the baseline response | significantly reduced the amplitude | did not differ | did not differ | did not act as an odorant agonist | Neither BMP or LF exerted any non-specific effects
2 | C=CC(C)(CCC=C(C)C)OC=O (centres unmarked) [LF, linalyl formate] |  |  | significantly reduce larval attraction to EA | displayed no preference | completely abolished larval attraction to EA |  |  | did not alter the amplitude |  |  |  | Neither BMP or LF exerted any non-specific effects
